Laboratory results as given in paper PMC10060354, “Discovery of a small molecule ligand of FRS2 that inhibits invasion and tumor growth” (Cellular Oncology, 2022).
pEC50: −log10 of the molar value. ≈ marks a conversion by molar mass, not a printed value. Like-named read-outs stand apart in the source and are kept apart here.

Key:
[1] = Cell viability (cytotoxicity, MTT) using HepG2; format: cell-based, human; conditions: human, HepG2 cells
Description: (§1) HepG2 human hepatocellular carcinoma cells were plated on 96-well tissue culture polystyrene plates for 24 h prior to dosing of the cells. The shortlisted hits were diluted in DMSO and serial dilutions are made 1% DMSO in growth media. Compounds at 8 concentrations in triplicate was then incubated for 72 h. Appropriate blanks and controls were run alongside the assay. One h prior to the end of the incubation period, the cells were loaded with MTT [yellow; 3-(4,5-dimethyl-2-thiazolyl)-2,5-diphenyl-2H-tetrazolium bromide], the plates were dried and re-solubilized using DMSO. The plates were then scanned at 570 nm using a plate reader.
(§2) The minimum effective concentration was determined from the lowest concentration whose mean value exceeds the significance level, provided either a clear dose–response relationship was observed, or at least two consecutive concentration points were above the significance level.

[2] = system: HepG2 human hepatocellular carcinoma cells; assay: Cell viability (cytotoxicity, MTT) using HepG2; format: cell-based; conditions: for MEC: 72h, 3 replicas, NR = No response (Summary sheet); for MTT (MEC) Minimum effective concentration: 72 h, summary sheet
Description: as §1, §2

DAOY cells = assay: Spheroid invasion assay (SIA), bFGF-induced collagen I invasion; format: cell-based, human; conditions: for functional activity in SIA (result in words): DAOY, bFGF-induced, 1, 5 and 10 µM
Description: 1000—2500 cells/well in 100 μl were seeded in 96 well Corning® Spheroid microplate (CLS4520, Sigma-Aldrich) or in cell-repellent 96 well microplate (650,790, Greiner Bio-one). SIA and analysis was performed as described before. In brief: After spheroid formation (24 – 72 h after seeding), 70 µl medium was removed and replaced with the collagen mixture (2.5 mg/ml Pure Col Collagen I (Advanced Biomatrix)), DMEM 1x (from 10 × stock, Sigma, D2429) and 0.4% Sodium bicarbonate (Sigma, S8761)), resulting in a final collagen concentration of 1.75 mg/ml. Embedded spheroids were stimulated with bFGF (100 ng/ml if not otherwise stated), HGF (30 ng /ml) or EGF (20 ng/ml) and distance of invaded cells quantified 24 – 48 h after embedding. Compounds and BGJ398 were added in Dimethylsulfoxid (DMSO) and corresponding DMSO concentrations were used in control samples.

[3] = Semi-thermodynamic solubility; format: physicochemical; conditions: for solubility: Room Temp, Overnight, LC-MSMS; for solubility thermodynamic: overnight; for solubility thermodynamic / Solubility (class in words): summary sheet
Description: In vitro ADME-T assays were performed by Cyprotex (Cyprotex Discovery, Cheshire, UK). […] The solution was agitated at ambient temperature overnight. The solutions were then centrifuged for 30 min at 3000 rpm at RT. The supernatant was removed and centrifuged for a further 30 min under the same conditions. An aliquot of the resulting supernatant was diluted in 50% methanol in water (containing an internal standard for MS analysis) prior to analysis by LC–MS/MS. […] These stocks were diluted in 50% methanol in water (containing an internal standard for MS analysis) prior to analysis by LC–MS/MS. The solubility of the shortlisted hits was calculated from a linear or quadratic fit of the standard curve.

[4] = Microsomal metabolic stability; format: in vitro ADME; conditions: human, pooled liver microsomes; for half-life at 1 µM: pH 7.4, liver microsomes, read-out: t1/2; for microsomal CLint at 1 µM: pH 7.4, read-out: Metabolic stability - Intrinsic clearance (CI)
Description: Pooled liver microsomes were purchased from Xenotech (H0500) and were stored according to manufacturer’s instructions prior to use. […] A minus co-factor control incubation was included for each compound tested where 0.1 M phosphate buffer pH 7.4 was added instead of NADPH. Two control compounds were included with each species. All incubations were performed singularly for each shortlisted hit. Each compound was incubated for 0, 5, 15, 30 and 45 min. The minus co-factor was incubated for 45 min only. The reactions were stopped by transferring incubate into acetonitrile at the appropriate time points in a 1:3 ratio. The termination plates were centrifuged at 3000 rpm for 20 min at 4 °C to precipitate the protein. Following protein precipitation, the supernatant were combined in cassette of up to 4 compounds, internal standard for MS analysis was added and samples were analyzed using LC–MS/MS. From a plot of In peak area ratio (compound peak area/internal standard peak area) against time, the gradient of the lines were determined. Subsequently, half-life and intrinsic clearance were calculated using the following equations. Eliminationrateconstant(k)=(-gradient)Half-life(t1/2)(min)=0.693/kIntrinsicclearance(CLint)(μl/min/mgprotein)=Vx0.693/t1/2 where V = Incubation volume (µl) / Microsomal protein (mg)

[5] = CaCo-2 permeability (bi-directional); conditions: human
Description: Caco-2 cells obtained from the ATCC were used between passage numbers 40—60. Cells were seeded onto Millipore Multiscreen Transwell plates at 1 × 10^5 cells/cm^2. The cells were cultured in DMEM and media was changed every two or three days. On day 20, the permeability study was performed. […] Cells were then incubated with HBSS at the desired pH in both apical and basolateral compartments for 40 min to stabilize physiological parameters.
The fluorescent integrity marker lucifer yellow was also included in the dosing solution. Analytical standards were prepared from test compound DMSO dilutions and transferred to buffer, maintaining a 1% v/v DMSO concentration.
For assessment of A-B permeability, HBSS was removed from the apical compartment and replaced with test compound dosing solution. The apical compartment insert was then placed into a companion plate containing fresh buffer (containing 1% v/v DMSO). For assessment of B-A permeability, HBSS was removed from the companion plate and replaced with test compound dosing solution. Fresh buffer (containing 1% v/v DMSO) was added to the apical compartment insert, which was then placed into the companion plate.
Compound permeability was assessed in duplicate. Compounds of known permeability characteristics were run as controls on each assay plate.
Test and control compounds were quantified by LC–MS/MS cassette analysis using a 7-point calibration with appropriate dilution of the samples. The starting concentration (C0) was determined from the dosing solution and the experimental recovery calculated from C0 and both apical and basolateral compartment concentrations. The integrity of the monolayer throughout the experiment was checked by monitoring lucifer yellow permeation using fluorimetric analysis.
The permeability coefficient (Papp) for each compound was calculated from the following equation: Papp=dQ/dtC0×A where dQ/dt was the rate of permeation of the drug across the cells, C0 was the donor compartment concentration at time zero and A was the area of the cell monolayer. C0 was obtained from analysis of the dosing solution.
Efflux ratio (ER) was calculated from mean A-B and B-A data. This was derived from: ER=Papp(B-A)Papp(A-B)

[6] = 72h, 3 replicas, NR = No response (Summary sheet), read-out: AC50
[7] = PBS, aqueous buffer, thermodynamic from solid, read-out: Mean Solubility
[8] = PBS, aqueous buffer, thermodynamic from solid, read-out: Solubility Replicate 1
[9] = PBS, aqueous buffer, thermodynamic from solid, read-out: Solubility Replicate 2
[10] = PBS, aqueous buffer, thermodynamic from solid, read-out: Solubility Replicate 3
[11] = PBS, aqueous buffer, thermodynamic from solid, read-out: Solubility Replicate 4
[12] = aqueous buffer, thermodynamic from solid, PBS
[13] = Caco-2, Mean Papp A-B, Caco-2, summary sheet
[14] = Caco-2, Mean Papp B-A, Caco-2, summary sheet
[15] = Caco-2, pH 7.4, Mean % Recovery A2B, HBSS/HBSS, pH 7.4/7.4
[16] = Caco-2, pH 7.4, Mean % Recovery B2A, HBSS/HBSS, pH 7.4/7.4
[17] = Caco-2, pH 7.4, Mean Papp A2B, HBSS/HBSS, pH 7.4/7.4
[18] = Caco-2, pH 7.4, Mean Papp B2A, HBSS/HBSS, pH 7.4/7.4
[19] = Caco-2, pH 7.4, Papp A2B Replicate 1, HBSS/HBSS, pH 7.4/7.4
[20] = Caco-2, pH 7.4, Papp B2A Replicate 1, HBSS/HBSS, pH 7.4/7.4
[21] = Caco-2, pH 7.4, Papp B2A Replicate 2, HBSS/HBSS, pH 7.4/7.4
[22] = 72 h, summary sheet, read-out: MTT (AC50) Conc at which 50% of maximum efficacy is reached

solubility [3, 7] | solubility [3, 8] | solubility [3, 9] | solubility [3, 10] | solubility [3, 11] | solubility thermodynamic [3, 12] | Solubility (class in words) [3] | half-life at 1 µM [4] | microsomal CLint at 1 µM [4] | efflux ratio at 120 min, 10 μM ([5]; Caco-2) | Papp A→B at 120 min, 10 μM [5, 13] | Papp B→A at 120 min, 10 μM [5, 14] | efflux ratio at 120 min, 10 μM ([5]; Caco-2, pH 7.4) | recovery at 120 min, 10 µM [5, 15] | recovery at 120 min, 10 µM [5, 16] | Papp A→B at 120 min, 10 μM [5, 17] | Papp B→A at 120 min, 10 μM [5, 18] | SMILES | AC50 at 72 h [1, 6] | MEC [2] | functional activity in SIA (result in words) (DAOY cells) | further results
1.25 µM (≈ 0.443 µg/mL) | 1.26 µM (≈ 0.447 µg/mL) | 1.12 µM (≈ 0.397 µg/mL) | 1.21 µM (≈ 0.429 µg/mL) | 1.4 µM (≈ 0.496 µg/mL) | 1.25 µM (≈ 0.443 µg/mL) | Sligthly | 0.552 min | 2510 µL/min/mg | 4 | 1.11 ×10⁻⁶ cm/s | 4.46 ×10⁻⁶ cm/s | 4 | 6.59% | 50.6% | 1.11 ×10⁻⁶ cm/s | 4.46 ×10⁻⁶ cm/s | CC1(C)Cc2cccc(OCC(=O)Nc3nc4ccccc4s3)c2O1 [Compound E25] |  | 42.6 µM | comparable inhibition of invasion | pEC50 (DAOY cells; Homo sapiens, Daoy, DAOY cells, n = 3 technical replicas, read-out: EC50 for the inhibition of bFGF-induced collagen I invasion): 5.12; Papp A→B at 120 min, 10 μM [5, 19]: 1.12 ×10⁻⁶ cm/s; Papp A→B at 120 min, 10 μM ([5]; Caco-2, pH 7.4, Papp A2B Replicate 2, HBSS/HBSS, pH 7.4/7.4): 1.11 ×10⁻⁶ cm/s; Papp B→A at 120 min, 10 μM [5, 20]: 5.88 ×10⁻⁶ cm/s; Papp B→A at 120 min, 10 μM [5, 21]: 3.04 ×10⁻⁶ cm/s; AC50 at 72 h [1, 22]: 58.7 µM; MTT (MEC) Minimum effective concentration [2]: 42.6 µM
2.18 µM (≈ 0.649 µg/mL) | 1.95 µM (≈ 0.581 µg/mL) |  | 2.79 µM (≈ 0.831 µg/mL) | 1.79 µM (≈ 0.533 µg/mL) | 2.18 µM (≈ 0.649 µg/mL) | Sligthly | 2.83 min | 490 µL/min/mg | 36.9 | 0.3 ×10⁻⁶ cm/s | 11.1 ×10⁻⁶ cm/s | 36.9 | 30% | 8.82% | 0.3 ×10⁻⁶ cm/s | 11.1 ×10⁻⁶ cm/s | Oc1cc(Cl)cc2c1NC(c1ccccc1)C1CC=CC21 (stereo not drawn) [Compound 11] |  | 14.2 µM | reduced effect compared to its parent compound 3.18 at all concentrations | Papp A→B at 120 min, 10 μM [5, 19]: 0.3 ×10⁻⁶ cm/s; Papp B→A at 120 min, 10 μM [5, 20]: 11.5 ×10⁻⁶ cm/s; Papp B→A at 120 min, 10 μM [5, 21]: 10.6 ×10⁻⁶ cm/s; AC50 at 72 h [1, 22]: 19.6 µM; MTT (MEC) Minimum effective concentration [2]: 14.2 µM
 | > 100 µM |  |  |  |  |  |  |  |  |  |  |  |  |  |  |  | CC(=O)CC(c1ccccc1)c1c(O)c2ccccc2oc1=O (stereo not drawn) [warfarin, reference compound] |  |  |  | solubility ([3]; read-out: Mean Solubility): >100 µM; solubility ([3]; read-out: Solubility Replicate 2): >100 µM; solubility ([3]; read-out: Solubility Replicate 3): >100 µM; solubility ([3]; read-out: Solubility Replicate 4): >100 µM

Continued, compound first:

SMILES | solubility [3, 7] | solubility [3, 8] | solubility [3, 9] | solubility [3, 10] | solubility [3, 11] | solubility thermodynamic [3, 12] | Solubility (class in words) [3] | half-life at 1 µM [4] | microsomal CLint at 1 µM [4] | efflux ratio at 120 min, 10 μM ([5]; Caco-2) | Papp A→B at 120 min, 10 μM [5, 13] | Papp B→A at 120 min, 10 μM [5, 14] | efflux ratio at 120 min, 10 μM ([5]; Caco-2, pH 7.4) | recovery at 120 min, 10 µM [5, 15] | recovery at 120 min, 10 µM [5, 16] | Papp A→B at 120 min, 10 μM [5, 17] | Papp B→A at 120 min, 10 μM [5, 18] | AC50 at 72 h [1, 6] | MEC [2] | functional activity in SIA (result in words) (DAOY cells) | further results
N#CC(C#N)=NNc1cccc(Cl)c1 [carbonyl cyanide 3-chlorophenylhydrazone, reference compound] |  |  |  |  |  |  |  |  |  |  |  |  |  |  |  |  |  | 6.66 µM | 4.22 µM |  | 
COC(=O)C1=C(C)NC(C)=C(C(=O)OCCN(C)Cc2ccccc2)C1c1cccc([N+](=O)[O-])c1 (stereo not drawn) [nicardipine, reference compound] | 29.8 µM (≈ 14.3 µg/mL) | 34.3 µM (≈ 16.4 µg/mL) | 24.2 µM (≈ 11.6 µg/mL) | 29.6 µM (≈ 14.2 µg/mL) | 31.2 µM (≈ 15 µg/mL) |  |  |  |  |  |  |  |  |  |  |  |  |  |  |  | 
CN(C)CCCN1c2ccccc2Sc2ccc(Cl)cc21 [Chlorpromazine, reference compound] |  |  |  |  |  |  |  |  |  |  |  |  |  |  |  |  |  | 12.9 µM | 10.7 µM |  | 
